In patent US20240279278A1, “NMU RECEPTOR 2 AGONISTS” (Boehringer Ingelheim International GmbH, priority 2023, published 2024):
Residues, ends and D or L forms follow the SMILES beside them.

How the values were obtained:
Type in all cases: cell-based
human NMUR1 receptor = biological target: T1, human NMUR1 receptor (Homo sapiens, UniProt Q9HB89); experiment: IP1 Gq HTRF assay, activation of human NMUR1 in buffer; conditions: CHO-K1 cells expressing human NMUR1, stimulation buffer with 0.1% BSA; read-out: EC50 (hNMUR1) buffer
T1 construct: expressed in transfected cells; host or cells: CHO-K1
T1 sequence (Q9HB89 1-426): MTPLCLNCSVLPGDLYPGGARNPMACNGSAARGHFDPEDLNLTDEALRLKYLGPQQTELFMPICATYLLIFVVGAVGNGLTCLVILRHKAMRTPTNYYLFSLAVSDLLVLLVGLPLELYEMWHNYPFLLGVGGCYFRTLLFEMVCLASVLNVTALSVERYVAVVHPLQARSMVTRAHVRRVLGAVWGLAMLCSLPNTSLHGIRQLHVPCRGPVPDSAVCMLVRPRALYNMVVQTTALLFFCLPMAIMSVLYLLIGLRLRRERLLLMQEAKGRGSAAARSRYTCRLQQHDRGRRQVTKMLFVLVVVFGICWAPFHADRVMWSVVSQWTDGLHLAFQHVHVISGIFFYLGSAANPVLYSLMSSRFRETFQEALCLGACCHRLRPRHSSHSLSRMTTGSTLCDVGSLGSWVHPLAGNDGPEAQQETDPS
From the text: (§1) Example 3: IP1 Gq HTRF Assay Activation of Human NMUR2 or Human NMUR1 in Buffer Application of the Homogenous Time Resolved Fluorescence (HTRF) technology optimized for Gq coupled receptors has been described in detail in the Cisbio IP-One Gq kit manual. In brief, a FRET signal (FRET: fluorescence resonance energy transfer) is generated between the donor label of an IP-One antibody (anti-IP1-Tb) and the acceptor label of a tagged IP-One (IP1-d2). Agonism of a Gq coupled receptor increases intracellular IP-One, which competes with labeled IP-One and leads to a reduction of the FRET signal. Frozen stocks of CHO-K1 cells stably expressing the human NMUR1 or NMUR2 receptor were thawed and 5000 cells were seeded in culture medium (HAM'S F12, 10% FCS) into each well of a 384-well assay plate. After seeding, cells were incubated for 24 h in a humidified incubator at 37° C. and 5% CO2. Next, cells were washed once with 50 μL of wash buffer (20 mM Hepes, 1×HBSS, pH 7.4), followed by addition of either 10 μL of stimulation buffer (20 mM Hepes, 1×HBSS, 50 mM LiCl, 0.1% BSA, pH 7.4). Peptide agonists to be tested were dissolved in 100% DMSO and pre-diluted in stimulation buffer at a suitable concentration range for an 8 pt dose-response curve. 5 μL of peptide pre-dilution were then added to each well, followed by another 5 μL of stimulation buffer to give a final concentration of 1% DMSO. Samples were subsequently incubated for 1 hour in a humidified incubator at 37° C. After addition of 5 μL each of IP1-d2 and anti-IP1-Tb, samples were incubated for another 1 hour at room temperature and FRET signals (ratio 665 nm/620 nm) were measured. EC50 values were calculated by nonlinear regression using a 4-parameter sigmoidal curve fit.

human NMUR2 receptor [1] = biological target: T2, human NMUR2 receptor (Homo sapiens, UniProt Q9GZQ4); experiment: IP1 Gq HTRF assay, activation of human NMUR2 in buffer; parameters: expressed in transfected cells; host or cells: CHO-K1; conditions: CHO-K1 cells expressing human NMUR2, stimulation buffer with 0.1% BSA; read-out: EC50 (hNMUR2) buffer
From the text: as §1

human NMUR2 receptor [2] = biological target: T2, human NMUR2 receptor; experiment: IP1 Gq HTRF assay, activation of human NMUR2 in human plasma; parameters: expressed in transfected cells; host or cells: CHO-K1; conditions: CHO-K1 cells expressing human NMUR2, 100% human plasma; read-out: EC50 (hNMUR2) human plasma
From the text: Example 4: IP1 Gq HTRF Assay Activation of Human NMUR2 in Human Plasma Application of the Homogenous Time Resolved Fluorescence (HTRF) technology optimized for Gq coupled receptors has been described in detail in the Cisbio IP-One Gq kit manual. In brief, a FRET signal is generated between the donor label of an IP-One antibody (anti-IP1-Tb) and the acceptor label of a tagged IP-One (IP1-d2). Agonism of a Gq coupled receptor increases intracellular IP-One, which competes with labeled IP-One and leads to a reduction of the FRET signal. Frozen stocks of CHO-K1 cells stably expressing the human NMUR1 receptor or human NMUR2 receptor were thawed and 5000 cells were seeded in culture medium (HAM'S F12, 10% FCS) into each well of a 384-well assay plate. After seeding, cells were incubated for 24 h in a humidified incubator at 37° C. and 5% CO2. Next, cells were washed once with […] of wash buffer (20 mM Hepes, 1×HBSS, pH 7.4), followed by addition of […] (100% human plasma, 50 mM LiCl). Peptide agonists to be tested were dissolved in 100% DMSO and pre-diluted in plasma at a suitable concentration range for an 8 pt dose-response curve. 5 μL of peptide pre-dilution were then added to each well, followed by another 5 μL of plasma to give a final concentration of 1% DMSO. Samples were subsequently incubated for 1 hour in a humidified incubator at 37° C. The plasma solution was replaced by 20 μL of stimulation buffer. After addition of 5 μL each of IP1-d2 and anti-IP1-Tb, samples were incubated for another 1 hour at room temperature and FRET signals (ratio 665 nm/620 nm) were measured. EC50 values were calculated by nonlinear regression using a 4-parameter sigmoidal curve fit.

T2 sequence (Q9GZQ4 whole entry): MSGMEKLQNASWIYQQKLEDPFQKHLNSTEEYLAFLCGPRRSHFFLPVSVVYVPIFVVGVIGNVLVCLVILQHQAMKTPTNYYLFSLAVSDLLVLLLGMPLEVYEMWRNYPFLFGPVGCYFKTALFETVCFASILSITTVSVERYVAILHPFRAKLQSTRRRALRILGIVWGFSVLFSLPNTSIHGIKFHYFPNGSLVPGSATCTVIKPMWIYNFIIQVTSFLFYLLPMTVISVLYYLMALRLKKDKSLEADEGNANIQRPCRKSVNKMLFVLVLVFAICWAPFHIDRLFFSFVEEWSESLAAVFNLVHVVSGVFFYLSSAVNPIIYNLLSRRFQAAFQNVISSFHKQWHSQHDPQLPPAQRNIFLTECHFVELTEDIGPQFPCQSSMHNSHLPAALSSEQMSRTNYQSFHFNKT

SMILES	EC50 (human NMUR1 receptor)	EC50 (human NMUR2 receptor [1])	EC50 (human NMUR2 receptor [2])
CCCC[C@H](NC(=O)[C@H](CC(C)C)N(C)C(=O)[C@H](Cc1ccccc1)NC(=O)[C@H](Cc1ccc(O)cc1)NC(=O)CN1CCN(CCNC(=O)CN(C)C(=O)CN(C)C(=O)CN(C)C(=O)CN(C)C(=O)CN(C)C(=O)CN(C)C(=O)CN(C)C(=O)CN(C)C(=O)CN(C)C(=O)CN(C)C(=O)CN(C)C(=O)CN(C)C(=O)CC[C@H](NC(=O)CC[C@H](NC(=O)CC[C@H](NC(=O)CC[C@H](NC(=O)CCCCCCCCCCCCCCCCC(=O)O)C(=O)O)C(=O)O)C(=O)O)C(=O)O)CC1)C(=O)N[C@@H](CCCNC(=N)N)C(=O)N1CCC[C@H]1C(=O)N[C@@H](CCCNC(=N)N)C(=O)NCC(N)=O [Compound 2, C18DA-gGlu4-Sar12-AEPipAc-Tyr-Phe-NMeLeu-Nle-Arg-Pro-Arg-Gly-NH2]	220 nM	1.1 nM	3.7 nM
CCCC[C@H](NC(=O)[C@H](CC(C)C)N(C)C(=O)[C@H](Cc1ccccc1)NC(=O)[C@H](Cc1ccc(O)cc1)NC(=O)CN1CCN(CCNC(=O)CN(C)C(=O)CN(C)C(=O)CN(C)C(=O)CN(C)C(=O)CN(C)C(=O)CN(C)C(=O)CN(C)C(=O)CN(C)C(=O)CN(C)C(=O)CN(C)C(=O)CN(C)C(=O)CN(C)C(=O)CN(C)C(=O)CN(C)C(=O)CN(C)C(=O)CC[C@H](NC(=O)CC[C@H](NC(=O)CC[C@H](NC(=O)CC[C@H](NC(=O)CCCCCCCCCCCCCCCCCCC(=O)O)C(=O)O)C(=O)O)C(=O)O)C(=O)O)CC1)C(=O)N[C@@H](CCCN)C(=O)N1CCC[C@H]1C(=O)N[C@@H](CCCNC(=N)N)C(=O)NCC(N)=O [Compound 3, C20DA-gGlu4-Sar15-AEPipAc-Tyr-Phe-NMeLeu-Nle-Orn-Pro-Arg-Gly-NH2] (HELM PEPTIDE1{[O=C(O)CCCCCCCCCCCCCCCCCCC(=O)[*:2]].[gGlu].[gGlu].[gGlu].[gGlu].[Sar].[Sar].[Sar].[Sar].[Sar].[Sar].[Sar].[Sar].[Sar].[Sar].[Sar].[Sar].[Sar].[Sar].[Sar].[O=C(CN1CCN(CCN[*:1])CC1)[*:2]].Y.F.[meL].[Nle].[Orn].P.R.G.[am]}$$$$V2.0)	440 nM	1.9 nM	5.6 nM
CCCC[C@H](NC(=O)[C@H](CC(C)C)N(C)C(=O)[C@H](Cc1ccccc1)NC(=O)[C@H](Cc1ccc(O)cc1)NC(=O)CN1CCN(CCNC(=O)CN(C)C(=O)CN(C)C(=O)CN(C)C(=O)CN(C)C(=O)CN(C)C(=O)CN(C)C(=O)CN(C)C(=O)CN(C)C(=O)CN(C)C(=O)CN(C)C(=O)CN(C)C(=O)CN(C)C(=O)CN(C)C(=O)CN(C)C(=O)CN(C)C(=O)CC[C@H](NC(=O)CC[C@H](NC(=O)CC[C@H](NC(=O)CC[C@H](NC(=O)CCCCCCCCCCCCCCCCCCC(=O)O)C(=O)O)C(=O)O)C(=O)O)C(=O)O)CC1)C(=O)N[C@@H](CCN)C(=O)N1CCC[C@H]1C(=O)N[C@@H](CCCNC(=N)N)C(=O)NCC(N)=O [Compound 4, C20DA-gGlu4-Sar15-AEPipAc-Tyr-Phe-NMeLeu-Nle-Dbu-Pro-Arg-Gly-NH2] (HELM PEPTIDE1{[O=C(O)CCCCCCCCCCCCCCCCCCC(=O)[*:2]].[gGlu].[gGlu].[gGlu].[gGlu].[Sar].[Sar].[Sar].[Sar].[Sar].[Sar].[Sar].[Sar].[Sar].[Sar].[Sar].[Sar].[Sar].[Sar].[Sar].[O=C(CN1CCN(CCN[*:1])CC1)[*:2]].Y.F.[meL].[Nle].[Dab].P.R.G.[am]}$$$$V2.0)	770 nM	2 nM	5.8 nM
CCCC[C@H](NC(=O)[C@H](CC(C)C)N(C)C(=O)[C@H](Cc1ccccc1)NC(=O)[C@H](Cc1ccc(O)cc1)NC(=O)CN1CCN(CCNC(=O)CN(C)C(=O)CN(C)C(=O)CN(C)C(=O)CN(C)C(=O)CN(C)C(=O)CN(C)C(=O)CN(C)C(=O)CN(C)C(=O)CN(C)C(=O)CN(C)C(=O)CN(C)C(=O)CN(C)C(=O)CC[C@H](NC(=O)CC[C@H](NC(=O)CC[C@H](NC(=O)CC[C@H](NC(=O)CCCCCCCCCCCCCCCCCCC(=O)O)C(=O)O)C(=O)O)C(=O)O)C(=O)O)CC1)C(=O)N[C@@H](CCCN)C(=O)N(C)[C@@H](C)C(=O)N[C@@H](CCCNC(=N)N)C(=O)NCC(N)=O [Compound 13, C20DA-gGlu4-Sar12-AEPipAc-Tyr-Phe-NMeLeu-Nle-Orn-NMeAla-Arg-Gly-NH2]	1200 nM	3.5 nM	10.2 nM
CCCC[C@H](NC(=O)[C@H](CC(C)C)N(C)C(=O)[C@H](Cc1ccccc1)NC(=O)[C@H](Cc1ccc(O)cc1)NC(=O)CN1CCN(C(=O)CN(C)C(=O)CN(C)C(=O)CN(C)C(=O)CN(C)C(=O)CN(C)C(=O)CN(C)C(=O)CN(C)C(=O)CN(C)C(=O)CN(C)C(=O)CN(C)C(=O)CN(C)C(=O)CN(C)C(=O)CC[C@H](NC(=O)CC[C@H](NC(=O)CC[C@H](NC(=O)CCCCCCCCCCCCCCCCCCC(=O)O)C(=O)O)C(=O)O)C(=O)O)CC1)C(=O)N[C@@H](CCCNC(=N)N)C(=O)N1CCC[C@H]1C(=O)N[C@@H](CCCNC(=N)N)C(=O)NCC(N)=O [Compound 78, C20DA-gGlu3-Sar12-PipAc-Tyr-Phe-NMeLeu-Nle-Arg-Pro-Arg-Gly-NH2]		1.2 nM	5.3 nM
CCCC[C@H](NC(=O)[C@H](CC(C)C)N(C)C(=O)[C@H](Cc1ccccc1)NC(=O)[C@H](Cc1ccc(O)cc1)NC(=O)CN1CCN(C(=O)CN(C)C(=O)CN(C)C(=O)CN(C)C(=O)CN(C)C(=O)CN(C)C(=O)CN(C)C(=O)CN(C)C(=O)CN(C)C(=O)CN(C)C(=O)CN(C)C(=O)CN(C)C(=O)CN(C)C(=O)CN(C)C(=O)CN(C)C(=O)CN(C)C(=O)CC[C@H](NC(=O)CC[C@H](NC(=O)CC[C@H](NC(=O)CCCCCCCCCCCCCCCCCCC(=O)O)C(=O)O)C(=O)O)C(=O)O)CC1)C(=O)N[C@@H](CCCN)C(=O)N1CCC[C@H]1C(=O)N[C@@H](CCCNC(=N)N)C(=O)NCC(N)=O [Compound 80, C20DA-gGlu3-Sar15-PipAc-Tyr-Phe-NMeLeu-Nle-Orn-Pro-Arg-Gly-NH2] (HELM PEPTIDE1{[O=C(O)CCCCCCCCCCCCCCCCCCC(=O)[*:2]].[gGlu].[gGlu].[gGlu].[Sar].[Sar].[Sar].[Sar].[Sar].[Sar].[Sar].[Sar].[Sar].[Sar].[Sar].[Sar].[Sar].[Sar].[Sar].[O=C(CN1CCN([*:1])CC1)[*:2]].Y.F.[meL].[Nle].[Orn].P.R.G.[am]}$$$$V2.0)		1.9 nM	7.1 nM
